Assay results taken from patent publication US20260092071A1, “COMPOUNDS AND COMPOSITIONS AS SMARCA2/4 DEGRADERS AND USES THEREOF” (REGENTS OF THE UNIVERSITY OF MICHIGAN, priority 2022, published 2026).

Legend:
[1] = biological target: SMARCA4 (Homo sapiens, UniProt P51532); assay: HiBiT assay for protein degradation, Hela SMARCA4-HiBiT cells (A series); type: cell-based; set-up: fuse HiBiT to the carboxy terminus of SMARCA2 (Promega CS302365) or SMARCA4 (Promega CS3023225); host or cells: HeLa (CRISPR/Cas9 HiBiT knock-in); conditions: Hela SMARCA4-HiBiT cells, 24 hours treatment; for Dmax: read-out: SMARC A4 Hela HiBit Dmax; for DC50: read-out: SMARC A4 Hela HiBit DC50
SMARCA4, sequence (P51532 whole entry, the tested form may be a part): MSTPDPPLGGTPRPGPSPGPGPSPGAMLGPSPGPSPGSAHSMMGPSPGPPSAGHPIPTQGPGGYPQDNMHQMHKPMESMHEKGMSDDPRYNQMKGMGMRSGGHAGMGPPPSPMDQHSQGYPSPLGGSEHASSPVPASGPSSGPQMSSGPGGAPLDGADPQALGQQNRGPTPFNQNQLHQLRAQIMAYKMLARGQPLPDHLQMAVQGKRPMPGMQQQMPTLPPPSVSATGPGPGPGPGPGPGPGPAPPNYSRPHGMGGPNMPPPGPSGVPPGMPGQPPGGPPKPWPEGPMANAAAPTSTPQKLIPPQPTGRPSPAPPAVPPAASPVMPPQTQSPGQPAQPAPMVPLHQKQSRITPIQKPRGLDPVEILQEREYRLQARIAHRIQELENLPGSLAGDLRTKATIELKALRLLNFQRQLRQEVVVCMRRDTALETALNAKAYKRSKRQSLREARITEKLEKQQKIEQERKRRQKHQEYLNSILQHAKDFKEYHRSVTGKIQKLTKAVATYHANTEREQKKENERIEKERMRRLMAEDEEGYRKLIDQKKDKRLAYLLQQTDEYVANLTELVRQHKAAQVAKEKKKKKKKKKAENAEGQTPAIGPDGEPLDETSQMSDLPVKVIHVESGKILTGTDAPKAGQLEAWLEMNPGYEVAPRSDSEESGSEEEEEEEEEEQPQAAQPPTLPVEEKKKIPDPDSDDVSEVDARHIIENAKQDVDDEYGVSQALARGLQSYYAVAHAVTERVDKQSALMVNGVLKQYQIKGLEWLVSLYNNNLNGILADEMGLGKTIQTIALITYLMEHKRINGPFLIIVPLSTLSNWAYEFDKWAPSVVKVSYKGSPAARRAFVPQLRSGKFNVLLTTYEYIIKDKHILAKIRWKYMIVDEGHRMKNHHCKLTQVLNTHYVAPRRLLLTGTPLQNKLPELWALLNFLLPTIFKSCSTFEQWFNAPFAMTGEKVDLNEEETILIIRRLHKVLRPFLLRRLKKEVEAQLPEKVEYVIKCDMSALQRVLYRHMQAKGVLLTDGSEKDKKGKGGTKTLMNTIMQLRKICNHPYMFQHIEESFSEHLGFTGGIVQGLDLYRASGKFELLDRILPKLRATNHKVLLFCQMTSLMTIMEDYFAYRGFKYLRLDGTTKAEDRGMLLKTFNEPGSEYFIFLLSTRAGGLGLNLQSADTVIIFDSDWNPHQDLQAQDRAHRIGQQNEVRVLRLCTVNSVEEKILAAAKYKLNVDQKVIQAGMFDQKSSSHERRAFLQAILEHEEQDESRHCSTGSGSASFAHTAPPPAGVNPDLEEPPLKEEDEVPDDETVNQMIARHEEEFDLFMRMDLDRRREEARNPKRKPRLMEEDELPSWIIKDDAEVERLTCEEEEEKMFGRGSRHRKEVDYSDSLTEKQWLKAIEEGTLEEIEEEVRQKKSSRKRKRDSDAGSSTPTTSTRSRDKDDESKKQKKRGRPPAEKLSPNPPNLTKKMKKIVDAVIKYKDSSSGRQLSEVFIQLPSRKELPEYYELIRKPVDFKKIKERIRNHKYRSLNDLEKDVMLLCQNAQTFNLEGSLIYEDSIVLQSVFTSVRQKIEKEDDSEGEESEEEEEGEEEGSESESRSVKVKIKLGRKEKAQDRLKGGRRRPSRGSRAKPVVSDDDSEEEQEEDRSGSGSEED
How it was run: (§1)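 HeLa cells engineered by CRISPR/Cas9 to carry a HiBiT tag fused to the C-terminus of SMARCA4 (Promega CS3023225) were grown in DMEM supplemented with FBS and penicillin-streptomycin. After compound exposure, remaining SMARCA4 protein was quantified using the Nano-Glo® HiBiT Lytic Detection Assay (Promega N3050), and curves were fitted in GraphPad Prism.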

[2] = biological target: SMARCA2 (Homo sapiens, UniProt P51531); assay: HiBiT assay for protein degradation, Hela SMARCA2-HiBiT cells (A series); type: cell-based; set-up: Hela cells were genetically modified via CRISPR/Cas9 to fuse HiBiT to the carboxy terminus of SMARCA2; host or cells: HeLa (CRISPR/Cas9 HiBiT knock-in); conditions: Hela SMARCA2-HiBiT cells, 24 hours treatment; for DC50: read-out: SMARC A2 Hela HiBit DC50; for Dmax: read-out: SMARC A2 Hela HiBit Dmax (%);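 for SMARC A2 Hela HiBit Dmax (%): 24 h compound treatment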
SMARCA2, sequence (P51531 whole entry): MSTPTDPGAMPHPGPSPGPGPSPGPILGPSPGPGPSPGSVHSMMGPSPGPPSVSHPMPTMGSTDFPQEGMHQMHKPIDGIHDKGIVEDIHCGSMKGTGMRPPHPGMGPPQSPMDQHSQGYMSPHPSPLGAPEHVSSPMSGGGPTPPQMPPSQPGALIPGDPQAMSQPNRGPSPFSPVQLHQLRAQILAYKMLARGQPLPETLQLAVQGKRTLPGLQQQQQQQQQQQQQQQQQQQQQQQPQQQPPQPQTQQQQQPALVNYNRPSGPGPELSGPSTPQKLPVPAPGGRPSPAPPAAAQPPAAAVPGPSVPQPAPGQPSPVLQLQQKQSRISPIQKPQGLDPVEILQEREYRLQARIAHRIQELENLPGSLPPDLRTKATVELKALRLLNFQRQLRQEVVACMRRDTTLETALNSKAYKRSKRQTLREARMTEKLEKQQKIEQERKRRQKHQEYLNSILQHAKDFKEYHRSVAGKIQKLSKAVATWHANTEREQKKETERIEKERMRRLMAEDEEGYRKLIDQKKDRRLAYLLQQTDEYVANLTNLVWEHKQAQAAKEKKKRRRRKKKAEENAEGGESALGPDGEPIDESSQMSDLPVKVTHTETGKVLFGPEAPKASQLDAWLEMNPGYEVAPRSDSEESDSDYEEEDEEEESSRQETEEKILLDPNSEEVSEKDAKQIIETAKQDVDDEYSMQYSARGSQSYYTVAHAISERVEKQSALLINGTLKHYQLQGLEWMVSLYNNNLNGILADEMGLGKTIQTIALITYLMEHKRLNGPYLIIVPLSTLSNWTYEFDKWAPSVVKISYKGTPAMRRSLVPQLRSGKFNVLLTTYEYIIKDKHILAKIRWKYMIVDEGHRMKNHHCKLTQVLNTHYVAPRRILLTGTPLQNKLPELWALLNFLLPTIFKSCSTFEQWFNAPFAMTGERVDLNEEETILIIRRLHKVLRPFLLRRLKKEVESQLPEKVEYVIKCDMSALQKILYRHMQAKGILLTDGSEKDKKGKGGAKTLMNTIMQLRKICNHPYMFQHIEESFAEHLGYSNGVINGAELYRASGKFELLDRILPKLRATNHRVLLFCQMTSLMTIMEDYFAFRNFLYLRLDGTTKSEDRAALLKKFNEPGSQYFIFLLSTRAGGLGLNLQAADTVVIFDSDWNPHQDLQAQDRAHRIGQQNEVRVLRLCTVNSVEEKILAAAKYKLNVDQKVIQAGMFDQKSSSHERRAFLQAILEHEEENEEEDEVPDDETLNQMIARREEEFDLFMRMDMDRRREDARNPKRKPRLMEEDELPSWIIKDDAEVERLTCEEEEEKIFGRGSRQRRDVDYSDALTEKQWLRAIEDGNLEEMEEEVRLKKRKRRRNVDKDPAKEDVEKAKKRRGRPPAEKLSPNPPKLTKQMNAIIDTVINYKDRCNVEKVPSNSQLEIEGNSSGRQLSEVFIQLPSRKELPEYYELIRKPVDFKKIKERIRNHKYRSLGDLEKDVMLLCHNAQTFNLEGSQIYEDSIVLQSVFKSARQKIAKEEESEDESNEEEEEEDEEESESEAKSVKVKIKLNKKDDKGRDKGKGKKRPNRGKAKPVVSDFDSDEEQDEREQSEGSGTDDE
How it was run: as §1, with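 “SMARCA2” for “SMARCA4”, “CS302365)” for “CS3023225)”, “treatment,” for “compound exposure,”, “with” for “using”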

SMARC A4 Hela HiBit DC50(nM) [1] | Dmax [1] [%] | DC50 [2] [nM] | Dmax [2] [%] | DC50 [1] [nM] | Compound
 | 50 to 69 | < 10 | > 90 | 10 to 100 | Cc1ncsc1-c1ccc([C@H](CO)NC(=O)[C@@H]2C[C@@H](O)CN2C(=O)[C@H](C2CCCCC2)n2cc([C@H]3CC[C@H](CN4CCC(c5ccc6c(c5)-n5c(nc(=O)c7c(Cl)cccc75)C65CCCCC5)CC4)CC3)nn2)cc1 [Compound A126, (2S,4R)-1-((S)-2-(4-((1r,4S)-4-((4-(4′-chloro-5′-oxo-5′H-spiro[cyclohexane-1,7′-indolo[1,2-a]quinazolin]-10′-yl)piperidin-1-yl)methyl)cyclohexyl)-1H-1,2,3-triazol-1-yl)-2-cyclohexylacetyl)-4-hydroxy-N—((R)-2-hydroxy-1-(4-(4-methylthiazol-5-yl)phenyl)ethyl)pyrrolidine-2-carboxamide]
 | 70 to 90 | < 10 | > 90 | < 10 | Cc1ncsc1-c1ccc([C@H](CO)NC(=O)[C@@H]2C[C@@H](O)CN2C(=O)[C@H](C2CCCCC2)n2cc([C@H]3CC[C@H](CN4CCC(c5ccc6c(c5)-n5c(nc(=O)c7c(Br)cccc75)C65CCCCC5)CC4)CC3)nn2)cc1 [Compound A127]
 | < 50 | 100 to 1000 | 50 to 69 | > 1000 | Cc1ncsc1-c1ccc([C@H](CN2CCOCC2)NC(=O)[C@@H]2C[C@@H](O)CN2C(=O)[C@H](C2CCCCC2)n2cc(-c3ccc(CN4CCC(c5ccc6c(c5)-n5c(nc(=O)c7c(Br)cccc75)C65CCCCC5)CC4)cc3)nn2)cc1 [Compound A128, (2S,4R)-1-((S)-2-(4-(4-((4-(4′-bromo-5′-oxo-5′H-spiro[cyclohexane-1,7′-indolo[1,2-a]quinazolin]-10′-yl)piperidin-1-yl)methyl)phenyl)-1H-1,2,3-triazol-1-yl)-2-cyclohexylacetyl)-4-hydroxy-N—((R)-1-(4-(4-methylthiazol-5-yl)phenyl)-2-morpholinoethyl)pyrrolidine-2-carboxamide]
 | < 50 | 10 to 100 | > 90 | > 1000 | Cc1ncsc1-c1ccc([C@H](CN2CCOCC2)NC(=O)[C@@H]2C[C@@H](O)CN2C(=O)[C@H](C2CCCCC2)n2cc([C@H]3CC[C@H](CN4CCC(c5ccc6c(c5)-n5c(nc(=O)c7c(Cl)cccc75)C65CCCCC5)C4)CC3)nn2)cc1 (stereo partly drawn) [Compound A130, (2S,4R)-1-((2S)-2-(4-((1r,4S)-4-((3-(4′-chloro-5′-oxo-5′H-spiro[cyclohexane-1,7′-indolo[1,2-a]quinazolin]-10′-yl)pyrrolidin-1-yl)methyl)cyclohexyl)-1H-1,2,3-triazol-1-yl)-2-cyclohexylacetyl)-4-hydroxy-N—((R)-1-(4-(4-methylthiazol-5-yl)phenyl)-2-morpholinoethyl)pyrrolidine-2-carboxamide]
 | < 50 | < 10 | > 90 | > 1000 | Cc1ncsc1-c1ccc([C@H](C)NC(=O)[C@@H]2C[C@@H](O)CN2C(=O)[C@H](C2CCN(C(=O)[C@H]3CC[C@H](CN4CCC(c5ccc6c(c5)-n5c(nc(=O)c7c(Br)cccc75)C65CCCCC5)CC4)CC3)CC2)n2cc(C3CC3)nn2)cc1 [Compound A132, (2S,4R)-1-((S)-2-(1-((1r,4S)-4-((4-(4′-bromo-5′-oxo-5′H-spiro[cyclohexane-1,7′-indolo[1,2-a]quinazolin]-10′-yl)piperidin-1-yl)methyl)cyclohexane-1-carbonyl)piperidin-4-yl)-2-(4-cyclopropyl-1H-1,2,3-triazol-1-yl)acetyl)-4-hydroxy-N—((S)-1-(4-(4-methylthiazol-5-yl)phenyl)ethyl)pyrrolidine-2-carboxamide]

The remaining lines, values behind:

Compound | SMARC A4 Hela HiBit DC50(nM) [1] | Dmax [1] [%] | DC50 [2] [nM] | Dmax [2] [%] | DC50 [1] [nM]
Cc1ncsc1-c1ccc([C@H](C)NC(=O)[C@@H]2C[C@@H](O)CN2C(=O)[C@H](C2CCCCC2)n2cc([C@H]3CC[C@H](CN4CCC(c5ccc6c(c5)-n5c(nc(=O)c7c(Cl)cccc75)C6(C)C)CC4)CC3)nn2)cc1 [Compound A124, (2S,4R)-1-((S)-2-(4-((1r,4S)-4-((4-(4-chloro-7,7-dimethyl-5-oxo-5,7-dihydroindolo[1,2-a]quinazolin-10-yl)piperidin-1-yl)methyl)cyclohexyl)-1H-1,2,3-triazol-1-yl)-2-cyclohexylacetyl)-4-hydroxy-N—((S)-1-(4-(4-methylthiazol-5-yl)phenyl)ethyl)pyrrolidine-2-carboxamide] | No fit | < 50 | < 10 | > 90 | 
Cc1ncsc1-c1ccc([C@H](CN2CCOCC2)NC(=O)[C@@H]2C[C@@H](O)CN2C(=O)[C@H](C2CCCCC2)n2cc([C@H]3CC[C@H](CN4CCC(c5ccc6c(c5)-n5c(nc(=O)c7c(Cl)cccc75)C6(C)C)CC4)CC3)nn2)cc1 [Compound A125, (2S,4R)-1-((S)-2-(4-((1r,4S)-4-((4-(4-chloro-7,7-dimethyl-5-oxo-5,7-dihydroindolo[1,2-a]quinazolin-10-yl)piperidin-1-yl)methyl)cyclohexyl)-1H-1,2,3-triazol-1-yl)-2-cyclohexylacetyl)-4-hydroxy-N—((R)-1-(4-(4-methylthiazol-5-yl)phenyl)-2-morpholinoethyl)pyrrolidine-2-carboxamide] | No fit | 50 to 69 | < 10 | > 90 | 
Cc1ncsc1-c1ccc([C@H](CO)NC(=O)[C@@H]2C[C@@H](O)CN2C(=O)[C@H](C2CCCCC2)n2cc(-c3ccc(CN4CCC(c5ccc6c(c5)-n5c(nc(=O)c7c(Br)cccc75)C65CCCCC5)CC4)cc3)nn2)cc1 [Compound A129] |  | < 50 | 100 to 1000 | 50 to 69 | > 1000
Cc1ncsc1-c1ccc([C@H](CN2CCOCC2)NC(=O)[C@@H]2C[C@@H](O)CN2C(=O)[C@H](C2CCCCC2)n2cc([C@H]3CC[C@H](CN4CCC[C@H](c5ccc6c(c5)-n5c(nc(=O)c7c(Cl)cccc75)C65CCCCC5)C4)CC3)nn2)cc1 [Compound A131, (2S,4R)-1-((2S)-2-(4-((1r,4S)-4-((3-(4′-chloro-5′-oxo-5′H-spiro[cyclohexane-1,7′-indolo[1,2-a]quinazolin]-10′-yl)piperidin-1-yl)methyl)cyclohexyl)-1H-1,2,3-triazol-1-yl)-2-cyclohexylacetyl)-4-hydroxy-N—((R)-1-(4-(4-methylthiazol-5-yl)phenyl)-2-morpholinoethyl)pyrrolidine-2-carboxamide] |  | < 50 | 10 to 100 | 70 to 90 | > 1000
CC1(C)c2ccc(C3CCN(C[C@H]4CC[C@H](c5cn([C@H](C(=O)N6C[C@H](O)C[C@H]6C(=O)N[C@@H](CN6CCOCC6)c6ccc(-c7scnc7C(=O)O)cc6)C6CCOCC6)nn5)CC4)CC3)cc2-n2c1nc(=O)c1c(Cl)cccc12 [Compound A133, 5-(4-((R)-1-((2S,4R)-1-((S)-2-(4-((1r,4S)-4-((4-(4-chloro-7,7-dimethyl-5-oxo-5,7-dihydroindolo[1,2-a]quinazolin-10-yl)piperidin-1-yl)methyl)cyclohexyl)-1H-1,2,3-triazol-1-yl)-2-(tetrahydro-2H-pyran-4-yl)acetyl)-4-hydroxypyrrolidine-2-carboxamido)-2-morpholinoethyl)phenyl)thiazole-4-carboxylic acid] |  | < 50 | 100 to 1000 | 70 to 90 | > 1000
